{"source": "patent US10597380B2", "about": "“Pyridazinone-based broad spectrum anti-influenza inhibitors” (Hoffmann-La Roche Inc., priority 2017, dated 2020)", "data": [{"system": "Influenza A/WSN/33-Luciferase virus", "experiment": "microbe, parasite or virus in culture", "format": "cell-based", "conditions": "A549, 72 h, luciferase signal three days later, read-out: IC50 antiviral activity (Luciferase reporter assay)", "units": {"IC50": "µM"}, "values": [{"smiles": "O=C(O)[C@@H]1CCCN1CCn1cccc(Nc2nn(-c3ccc(OC(F)(F)F)cc3)c(=O)c3ccccc23)c1=O", "note": "[Example 115, (2S)-1-[2-[2-oxo-3-[[4-oxo-3-[4-(trifluoromethoxy)phenyl]phthalazin-1-yl]amino]-1-pyridyl]ethyl]pyrrolidine-2-carboxylic acid]", "IC50": 0.18}, {"smiles": "O=C(O)[C@H]1CCCN1CCn1cccc(Nc2nn(-c3ccc(OC(F)(F)F)cc3)c(=O)c3ccccc23)c1=O", "note": "[Example 116, (2R)-1-[2-[2-oxo-3-[[4-oxo-3-[4-(trifluoromethoxy)phenyl]phthalazin-1-yl]amino]-1-pyridyl]ethyl]pyrrolidine-2-carboxylic acid]", "IC50": 0.261}, {"smiles": "O=C(O)CCCn1cc(Cl)cc(Nc2nn(-c3ccc(OC(F)(F)F)cc3)c(=O)c3c2CCC3)c1=O", "note": "[Example 117, 4-[5-chloro-2-oxo-3-[[4-oxo-3-[4-(trifluoromethoxy)phenyl]-6,7-dihydro-5H-cyclopenta[d]pyridazin-1-yl]amino]-1-pyridyl]butanoic acid]", "IC50": 0.114}, {"smiles": "O=C(O)CCCn1cccc(Nc2nn(-c3ccc(OC(F)(F)F)cc3)c(=O)c3c2CCC3)c1=O", "note": "[Example 118, 4-[2-oxo-3-[[4-oxo-3-[4-(trifluoromethoxy)phenyl]-6,7-dihydro-5H-cyclopenta[d]pyridazin-1-yl]amino]-1-pyridyl]butanoic acid]", "IC50": 0.953}, {"smiles": "O=C(O)COCCn1cccc(Nc2nn(-c3ccc(OC(F)(F)F)cc3)c(=O)c3c2CCC3)c1=O", "note": "[Example 119, 2-[2-[2-oxo-3-[[4-oxo-3-[4-(trifluoromethoxy)phenyl]-6,7-dihydro-5H-cyclopenta[d]pyridazin-1-yl]amino]-1-pyridyl]ethoxy]acetic acid]", "IC50": 3.76}, {"smiles": "O=C(O)C1CCN(CCn2cccc(Nc3nn(-c4ccc(OC(F)(F)F)cc4)c(=O)c4c3CCC4)c2=O)C1", "note": "(centres unmarked) [Example 120, 1-[2-[2-oxo-3-[[4-oxo-3-[4-(trifluoromethoxy)phenyl]-6,7-dihydro-5H-cyclopenta[d]pyridazin-1-yl]amino]-1-pyridyl]ethyl]pyrrolidine-3-carboxylic acid]", "IC50": 1.12}, {"smiles": "O=C(O)C1CCCN1CCn1cccc(Nc2nn(-c3ccc(OC(F)(F)F)cc3)c(=O)c3c2CCC3)c1=O", "note": "(centres unmarked) [Example 121, 1-[2-[2-oxo-3-[[4-oxo-3-[4-(trifluoromethoxy)phenyl]-6,7-dihydro-5H-1-yl]amino]-1-pyridyl]ethyl]pyrrolidine-2-carboxylic acid]", "IC50": 0.156}, {"smiles": "O=C(O)C1CN(CCn2cccc(Nc3nn(-c4ccc(OC(F)(F)F)cc4)c(=O)c4c3CCC4)c2=O)CCO1", "note": "(centres unmarked) [Example 122, 4-[2-[2-oxo-3-[[4-oxo-3-[4-(trifluoromethoxy)phenyl]-6,7-dihydro-5H-cyclopenta[d]pyridazin-1-yl]amino]-1-pyridyl]ethyl]morpholine-2-carboxylic acid]", "IC50": 3.71}, {"smiles": "O=C(O)C1COCCN1CCn1cccc(Nc2nn(-c3ccc(OC(F)(F)F)cc3)c(=O)c3c2CCC3)c1=O", "note": "(centres unmarked) [Example 123, 4-[2-[2-oxo-3-[[4-oxo-3-[4-(trifluoromethoxy)phenyl]-6,7-dihydro-5H-cyclopenta[d]pyridazin-1-yl]amino]-1-pyridyl]ethyl]morpholine-3-carboxylic acid]", "IC50": 0.485}, {"smiles": "O=C(O)CCCn1cncc(Nc2nn(-c3ccc(OC(F)(F)F)cc3)c(=O)c3c2CCC3)c1=O", "note": "[Example 124, 4-[6-oxo-5-[[4-oxo-3-[4-(trifluoromethoxy)phenyl]-6,7-dihydro-5H-cyclopenta[d]pyridazin-1-yl]amino]pyrimidin-1-yl]butanoic acid]", "IC50": 4.93}, {"smiles": "Cn1cccc(Nc2nn(-c3ccc(OC(F)(F)F)cc3)c(=O)c3cc(O)ccc23)c1=O", "note": "[Example 125, 7-Hydroxy-4-[(1-methyl-2-oxo-3-pyridyl)amino]-2-[4-(trifluoromethoxy)phenyl]phthalazin-1-one]", "IC50": 0.088}, {"smiles": "Cn1cccc(Nc2nn(-c3ccc(OC(F)(F)F)cc3)c(=O)c3ccc(O)cc23)c1=O", "note": "[Example 126, 6-Hydroxy-4-[(1-methyl-2-oxo-3-pyridyl)amino]-2-[4-(trifluoromethoxy)phenyl]phthalazin-1-one]", "IC50": 0.191}, {"smiles": "O=c1c(Nc2nn(-c3ccc(OC(F)(F)F)cc3)c(=O)c3c2CCC3)cccn1CC1COCCN1", "note": "(centres unmarked) [Example 127, 1-[[1-(morpholin-3-ylmethyl)-2-oxo-3-pyridyl]amino]-3-[4-(trifluoromethoxy)phenyl]-6,7-dihydro-5H-cyclopenta[d]pyridazin-4-one]", "IC50": 0.033}, {"smiles": "CNCCn1cncc(Nc2nn(-c3ccc(OC(F)(F)F)cc3)c(=O)c3c2CCC3)c1=O", "note": "[Example 128, 1-[[1-[2-(Methylamino)ethyl]-6-oxo-pyrimidin-5-yl]amino]-3-[4-(trifluoromethoxy)phenyl]-6,7-dihydro-5H-cyclopenta[d]pyridazin-4-one]", "IC50": 0.092}, {"smiles": "O=C(O)CNCCn1cccc(Nc2nn(-c3ccc(OC(F)(F)F)cc3)c(=O)c3c2CCC3)c1=O", "note": "[Example 129, 2-[2-[2-Oxo-3-[[4-oxo-3-[4-(trifluoromethoxy)phenyl]-6,7-dihydro-5H-cyclopenta[d]pyridazin-1-yl]amino]-1-pyridyl]ethylamino]acetic acid]", "IC50": 0.079}, {"smiles": "NCCn1cccc(Nc2nn(-c3ccc(OC(F)(F)F)cc3)c(=O)c3c2CCC3)c1=O", "note": "[Example 130, 1-[[1-(2-Aminoethyl)-2-oxo-3-pyridyl]amino]-3-[4-(trifluoromethoxy)phenyl]-6,7-dihydro-5H-cyclopenta[d]pyridazin-4-one]", "IC50": 0.062}, {"smiles": "O=c1c(Nc2nn(-c3ccc(OC(F)(F)F)cc3)c(=O)c3c2CCC3)cccn1CC1CCCN1", "note": "(centres unmarked) [Example 131, 1-[[2-Oxo-1-(pyrrolidin-2-ylmethyl)-3-pyridyl]amino]-3-[4-(trifluoromethoxy)phenyl]-6,7-dihydro-5H-cyclopenta[d]pyridazin-4-one]", "IC50": 0.03}, {"smiles": "CN1CCc2c(Nc3cccn(C)c3=O)nn(-c3ccc(OC(F)(F)F)cc3)c(=O)c2C1", "note": "[Example 132, 6-Methyl-1-[(1-methyl-2-oxo-3-pyridyl)amino]-3-[4-(trifluoromethoxy)phenyl]-7,8-dihydro-5H-pyrido[3,4-d]pyridazin-4-one]", "IC50": 0.087}, {"smiles": "CN1CCc2c(c(Nc3cccn(C)c3=O)nn(-c3ccc(OC(F)(F)F)cc3)c2=O)C1", "note": "[Example 133, 6-Methyl-4-[(1-methyl-2-oxo-3-pyridyl)amino]-2-[4-(trifluoromethoxy)phenyl]-7,8-dihydro-5H-pyrido[3,4-d]pyridazin-1-one]", "IC50": 0.538}, {"smiles": "Cn1cccc(Nc2nn(-c3ccc(OC(F)(F)F)cc3)c(=O)c3c2CCNC3)c1=O", "note": "[Example 134, 1-[(1-Methyl-2-oxo-3-pyridyl)amino]-3-[4-(trifluoromethoxy)phenyl]-5,6,7,8-tetrahydropyrido[3,4-d]pyridazin-4-one]", "IC50": 0.521}, {"smiles": "O=c1c(Nc2nn(-c3ccc(OC(F)(F)F)cc3)c(=O)c3c2CCC3)cccn1C[C@@H]1CNCCO1", "note": "[Example 135, 1-[[1-[[(2S)-Morpholin-2-yl]methyl]-2-oxo-3-pyridyl]amino]-3-[4-(trifluoromethoxy)phenyl]-6,7-dihydro-5H-cyclopenta[d]pyridazin-4-one]", "IC50": 0.085}, {"smiles": "COCCOc1ccc2c(=O)n(-c3ccc(OC(F)(F)F)cc3)nc(Nc3cccn(C)c3=O)c2c1", "note": "[Example 136, 6-(2-Methoxyethoxy)-4-[(1-methyl-2-oxo-3-pyridyl)amino]-2-[4-(trifluoromethoxy)phenyl]phthalazin-1-one]", "IC50": 0.061}, {"smiles": "COCCOc1ccc2c(Nc3cccn(C)c3=O)nn(-c3ccc(OC(F)(F)F)cc3)c(=O)c2c1", "note": "[Example 137, 7-(2-Methoxyethoxy)-4-[(1-methyl-2-oxo-3-pyridyl)amino]-2-[4-(trifluoromethoxy)phenyl]phthalazin-1-one]", "IC50": 0.136}, {"smiles": "COCCOc1cccc2c(=O)n(-c3ccc(OC(F)(F)F)cc3)nc(Nc3cccn(C)c3=O)c12", "note": "[Example 138, 5-(2-Methoxyethoxy)-4-[(1-methyl-2-oxo-3-pyridyl)amino]-2-[4-(trifluoromethoxy)phenyl]phthalazin-1-one]", "IC50": 0.11}, {"smiles": "Cn1cccc(Nc2nn(-c3ccc(OC(F)(F)F)cc3)c(=O)c3cc(C(N)=O)ccc23)c1=O", "note": "[Example 139, 1-[(1-Methyl-2-oxo-3-pyridyl)amino]-4-oxo-3-[4-(trifluoromethoxy)phenyl]phthalazine-6-carboxamide]", "IC50": 0.062}, {"smiles": "CC(O)c1ccc2c(Nc3cccn(C)c3=O)nn(-c3ccc(OC(F)(F)F)cc3)c(=O)c2c1", "note": "(centres unmarked) [Example 140, 7-(1-Hydroxyethyl)-4-[(1-methyl-2-oxo-3-pyridyl)amino]-2-[4-(trifluoromethoxy)phenyl]phthalazin-1-one]", "IC50": 0.032}, {"smiles": "Cn1cccc(Nc2nn(-c3ccc(OC(F)(F)F)cc3)c(=O)c3cc(CO)ccc23)c1=O", "note": "[Example 141, 7-(hydroxymethyl)-4-[(1-methyl-2-oxo-3-pyridyl)amino]-2-[4-(trifluoromethoxy)phenyl]phthalazin-1-one]", "IC50": 0.012}, {"smiles": "Cn1cccc(Nc2nn(-c3ccc(OC(F)(F)F)cc3)c(=O)c3cc(N)ccc23)c1=O", "note": "[Example 142, 7-Amino-4-[(1-methyl-2-oxo-3-pyridyl)amino]-2-[4-(trifluoromethoxy)phenyl]phthalazin-1-one]", "IC50": 0.046}, {"smiles": "Cn1cccc(Nc2nn(-c3ccc(OC(F)(F)F)cc3)c(=O)c3cc(CN)ccc23)c1=O", "note": "[Example 143, 7-(Aminomethyl)-4-[(1-methyl-2-oxo-3-pyridyl)amino]-2-[4-(trifluoromethoxy)phenyl]phthalazin-1-one]", "IC50": 0.271}, {"smiles": "CN(C)Cc1ccc2c(Nc3cccn(C)c3=O)nn(-c3ccc(OC(F)(F)F)cc3)c(=O)c2c1", "note": "[Example 144, 7-[(Dimethylamino)methyl]-4-[(1-methyl-2-oxo-3-pyridyl)amino]-2-[4-(trifluoromethoxy)phenyl]phthalazin-1-one]", "IC50": 0.625}, {"smiles": "CC(O)CN1CCc2c(Nc3cccn(C)c3=O)nn(-c3ccc(OC(F)(F)F)cc3)c(=O)c2C1", "note": "(centres unmarked) [Example 145, 6-(2-Hydroxypropyl)-1-[(1-methyl-2-oxo-3-pyridyl)amino]-3-[4-(trifluoromethoxy)phenyl]-7,8-dihydro-5H-pyrido[3,4-d]pyridazin-4-one]", "IC50": 0.129}, {"smiles": "Cn1cccc(Nc2nn(-c3ccc(OC(F)(F)F)cc3)c(=O)c3c2CCN(CC(C)(C)O)C3)c1=O", "note": "[Example 146, 6-(2-Hydroxy-2-methyl-propyl)-1-[(1-methyl-2-oxo-3-pyridyl)amino]-3-[4-(trifluoromethoxy)phenyl]-7,8-dihydro-5H-pyrido[3,4-d]pyridazin-4-one]", "IC50": 0.167}]}]}
